# Results published in patent US9995734B2, “Human T cell line assay for evaluating the immunologic identity of glatiramer acetate preparations” (Mylan Inc., priority 2013, dated 2018).
# Several values for one entry are separate records, joined by “and”; a condition that tells them apart may be missing. Equal entries are not always repeated.
# Test system: Donor 1 COP T-Cell Lines
# Experiment: Multiplex bead cytokine assay (FlowCytoMix), Donor 1 COP T-cell lines
# Assay type: cell-based, human
# Method: Culture medium was removed from cultures prepared as for proliferation assay and utilized to measure cytokine production. In most cases culture medium was collected 18-24 hours after mixing T-cells, APC, and stimulating antigen. Cytokine production was measured by ELISA or bead assay. For measuring cytokine production, 100-150 μL culture medium (100 μL if culture was to be continued, otherwise 150 μL) was removed from each well. In some cases, the culture was continued 48 hours, for a total of 72 hours of culture, and the proliferative response measured.
# The concentration of multiple cytokines was measured simultaneously using FlowCytoMix™ kits (eBioscience, San Diego Calif.). These are fluorescent bead based assays consisting of beads conjugated to anti cytokine antibodies. Beads specific for each cytokine are distinguished by size and fluorescence at 670 run. Cytokine bound to each bead is detected using a phycoerythrin conjugated antibody so that the fluorescence at 585 nm reflects the concentration of cytokine in the sample. Two kits were utilized which measured different cytokine panels. The TH1/TH2 kit measures IFN-γ, IL-1β, IL-2, IL-4, IL-5, IL-6, IL-8, IL-10, IL-12p70, TNF-α (TNF) and TNF-β (LT). The TH1/TH2/TH9/TH17/TH22 kit measures […], IL-1β, IL-2, IL-4, IL-5, IL-6, IL-9, IL-10, IL-12p70, IL-13, IL-17, IL-22, and TNF-α (TNF). Both kits were used following the manufacturer's instructions.
# IL-12p70, IFN-γ, IL-2, IL-10, IL-8, IL-6, IL-5, IL-4, IL-1β, TNF-α (TNF), and TNF-β (LT) secretion were measured in response to stimulation with 1, 3, or 10 μg/mL GMA, or 1, 3, or 10 μg/mL COP, as well as a no-antigen control and an MBP control, in the presence of autologous EBV-transformed B-LCL.
# [1] = 222-1C5, MBP control antigen, 24 hours after Day 56 restimulation
# [2] = 222-2B8, MBP control antigen, 24 hours after Day 56 restimulation
# [3] = 222-2E1, MBP control antigen, 24 hours after Day 56 restimulation
# [4] = 222-B11 (so in the source), MBP control antigen, 24 hours after Day 56 restimulation
# [5] = 222-1C5, 1 μg/mL, 24 hours after Day 56 restimulation
# [6] = 222-1C5, 3 μg/mL, 24 hours after Day 56 restimulation
# [7] = 222-1C5, 10 μg/mL, 24 hours after Day 56 restimulation
# [8] = 222-1C5, 10 μg/mL, Day 34 supernatants
# [9] = 222-1H12, 10 μg/mL, Day 34 supernatants
# [10] = 222-2B8, 1 μg/mL, 24 hours after Day 56 restimulation
# [11] = 222-2B8, 3 μg/mL, 24 hours after Day 56 restimulation
# [12] = 222-2B8, 10 μg/mL, 24 hours after Day 56 restimulation
# [13] = 222-2D2, 10 μg/mL, Day 34 supernatants
# [14] = 222-2D8, 10 μg/mL, Day 34 supernatants
# [15] = 222-2E1, 1 μg/mL, 24 hours after Day 56 restimulation
# [16] = 222-2E1, 3 μg/mL, 24 hours after Day 56 restimulation
# [17] = 222-2E1, 10 μg/mL, 24 hours after Day 56 restimulation
# [18] = 222-B11 (so in the source), 1 μg/mL, 24 hours after Day 56 restimulation
# [19] = 222-B11 (so in the source), 3 μg/mL, 24 hours after Day 56 restimulation
# [20] = 222-B11 (so in the source), 10 μg/mL, 24 hours after Day 56 restimulation
substance,measurement,setting,value
FFKNIVTPRTPPPSQGK [MBP],IFN-γ,[1],64 pg/mL
same,IL-2,[1],0 pg/mL
same,IL-5,[1],0 pg/mL
same,IL-10,[1],0 pg/mL
same,IL-13,[1],82 pg/mL
same,IL-22,[1],36 pg/mL
same,TNF-α,[1],9 pg/mL
same,IFN-γ,[2],0 pg/mL
same,IL-2,[2],0 pg/mL
same,IL-5,[2],0 pg/mL
same,IL-10,[2],0 pg/mL
same,IL-13,[2],26.77 pg/mL
same,IL-22,[2],20.62 pg/mL
same,TNF-α,[2],0 pg/mL
same,IFN-γ,[3],20.69 pg/mL
same,IL-2,[3],42.43 pg/mL
same,IL-5,[3],0 pg/mL
same,IL-10,[3],2.28 pg/mL and 2.3 pg/mL
same,IL-13,[3],51.1 pg/mL
same,IL-22,[3],107.54 pg/mL
same,TNF-α,[3],13.51 pg/mL
same,IFN-γ,[4],0 pg/mL
same,IL-2,[4],0 pg/mL
same,IL-5,[4],0 pg/mL
same,IL-10,[4],0 pg/mL
same,IL-13,[4],0.83 pg/mL
same,IL-22,[4],0 pg/mL
same,TNF-α,[4],0 pg/mL
glatiramer acetate [COP],IFN-γ,[5],158 pg/mL
same,IL-2,[5],0 pg/mL
same,IL-5,[5],0 pg/mL
same,IL-10,[5],11 pg/mL
same,IL-13,[5],129 pg/mL
same,IL-22,[5],0 pg/mL
same,TNF-α,[5],11 pg/mL
same,IFN-γ,[6],256 pg/mL
same,IL-2,[6],0 pg/mL
same,IL-5,[6],0 pg/mL
same,IL-10,[6],16 pg/mL
same,IL-13,[6],254 pg/mL
same,IL-22,[6],32 pg/mL
same,TNF-α,[6],42 pg/mL
same,IFN-γ,[7],585 pg/mL
same,IL-2,[7],40 pg/mL
same,IL-5,[7],0 pg/mL
same,IL-10,[7],49 pg/mL
same,IL-13,[7],837 pg/mL
same,IL-22,[7],42 pg/mL
same,TNF-α,[7],42 pg/mL
same,IFN-γ,[8],416.83 pg/mL
same,IL-1β,[8],<= 0 pg/mL
same,IL-2,[8],<= 0 pg/mL
same,IL-5,[8],56.39 pg/mL
same,IL-8,[8],<= 0 pg/mL
same,IL-10,[8],50.58 pg/mL
same,TNF-α,[8],<= 0 pg/mL
same,TNF-β,[8],15.34 pg/mL
same,IFN-γ,[9],3626 pg/mL
same,IL-1β,[9],59 pg/mL
same,IL-2,[9],0 pg/mL
same,IL-4,[9],0 pg/mL
same,IL-5,[9],398 pg/mL
same,IL-10,[9],240 pg/mL
same,TNF-α,[9],22 pg/mL
same,TNF-β,[9],98 pg/mL
same,IFN-γ,[10],8.46 pg/mL
same,IL-2,[10],0 pg/mL
same,IL-5,[10],0 pg/mL
same,IL-10,[10],2.99 pg/mL
same,IL-13,[10],204.31 pg/mL
same,IL-22,[10],83.01 pg/mL
same,TNF-α,[10],0 pg/mL
same,IFN-γ,[11],39.91 pg/mL
same,IL-2,[11],19.65 pg/mL
same,IL-5,[11],30.3 pg/mL
same,IL-10,[11],2.83 pg/mL
same,IL-13,[11],1028.23 pg/mL
same,IL-22,[11],77.82 pg/mL
same,TNF-α,[11],0 pg/mL
same,IFN-γ,[12],119.12 pg/mL
same,IL-2,[12],0 pg/mL
same,IL-5,[12],314.77 pg/mL
same,IL-10,[12],36.16 pg/mL
same,IL-13,[12],2825.8 pg/mL
same,IL-22,[12],143.57 pg/mL
same,TNF-α,[12],91.29 pg/mL
same,IFN-γ,[13],120 pg/mL
same,IL-1β,[13],130.9 pg/mL
same,IL-2,[13],210.47 pg/mL
same,IL-5,[13],38.13 pg/mL
same,IL-8,[13],0.85 pg/mL
same,IL-10,[13],45.09 pg/mL
same,TNF-α,[13],30.87 pg/mL
same,TNF-β,[13],23.15 pg/mL
same,"IL-4, IL-6, or IL-12 detected","222-2D8, 222-1H12, 222-1C5, 222-2D2, Day 34 supernatants",Little or no
same,IFN-γ,[14],3296 pg/mL
same,IL-1β,[14],2535 pg/mL
same,IL-2,[14],0 pg/mL
same,IL-4,[14],0 pg/mL
same,IL-5,[14],1587 pg/mL
same,IL-10,[14],100 pg/mL
same,TNF-α,[14],493 pg/mL
same,TNF-β,[14],267 pg/mL
same,IFN-γ,[15],53.73 pg/mL
same,IL-2,[15],26.46 pg/mL
same,IL-5,[15],0 pg/mL
same,IL-10,[15],5.3 pg/mL
same,IL-13,[15],165.79 pg/mL
same,IL-22,[15],72.54 pg/mL
same,TNF-α,[15],25.28 pg/mL
same,IFN-γ,[16],163.61 pg/mL
same,IL-2,[16],40.39 pg/mL
same,IL-5,[16],0 pg/mL
same,IL-10,[16],12.19 pg/mL
same,IL-13,[16],1037.93 pg/mL
same,IL-22,[16],40.37 pg/mL
same,TNF-α,[16],0 pg/mL
same,IFN-γ,[17],405.26 pg/mL
same,IL-2,[17],0 pg/mL
same,IL-5,[17],106.24 pg/mL
same,IL-10,[17],22 pg/mL
same,IL-13,[17],2046.94 pg/mL
same,IL-22,[17],60.95 pg/mL
same,TNF-α,[17],333.22 pg/mL
same,IFN-γ,[18],0.65 pg/mL
same,IL-2,[18],63.02 pg/mL
same,IL-5,[18],0 pg/mL
same,IL-10,[18],0 pg/mL
same,IL-13,[18],47.69 pg/mL
same,IL-22,[18],69.37 pg/mL
same,TNF-α,[18],0 pg/mL
same,IFN-γ,[19],0 pg/mL
same,IL-2,[19],0 pg/mL
same,IL-5,[19],0 pg/mL
same,IL-10,[19],0 pg/mL
same,IL-13,[19],105.51 pg/mL
same,IL-22,[19],45.67 pg/mL
same,TNF-α,[19],0 pg/mL
same,IFN-γ,[20],47.35 pg/mL
same,IL-2,[20],0 pg/mL
same,IL-5,[20],119 pg/mL
same,IL-10,[20],11.27 pg/mL
same,IL-13,[20],1839.63 pg/mL
same,IL-22,[20],19.45 pg/mL
same,TNF-α,[20],13.51 pg/mL
same,IFN-γ production,"Line 105 (so in the source), Table 14 = 222-1C5, after appropriate dilution of supernatants",comparable amounts
